Measured values taken from PubChem BioAssay AID1845215 (Molecular Pharmacology Branch, DTP, NCI, 2023).
“And” between values parts separate entries of the source, which are not always exact repeats. Identical values can stand only once.

Tested on: SW 1271 complex tumor spheroid viability
Experiment: Anticancer human tumor SW 1271 cell line growth inhibition;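 also: spheroids exposed to agents for seven days before readout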;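 as to viability, T/C: percent of DMSO vehicle control luminescence so 100% = vehicle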
Conditions: for viability, T/C: stronger effect = lower value
In short: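 Complex tumor spheroids combined malignant cells with endothelial cells and mesenchymal stem cells. DNA-damaging drugs and DNA repair inhibitors were tested alone and in combination, at half-log dilutions down from clinical Cmax (top 10 microM if Cmax unknown), 0.25% DMSO final.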

## Cc1cc(C)c(CNC(=O)c2cc(-c3ccc(CN4CCOCC4)cc3)cc3c2cnn3C2CCCC2)c(=O)[nH]1 + Cn1nnc2c(C(N)=O)ncn2c1=O
Curve of first compound, second compound 1 µM
  IC50: > 10000 nM
Curve of first compound, second compound 3.16 µM
  IC50: > 10000 nM
Curve of first compound, second compound 10 µM
  IC50: > 10000 nM
Curve of first compound, second compound 31.6 µM
  IC50: > 10000 nM
Curve of first compound, second compound 100 µM
  IC50: > 10000 nM
Second compound 1 µM, first compound 0.0316 µM
  viability, T/C: 98.6%
Second compound 1 µM, first compound 0.1 µM
  viability, T/C: 92.6%
Second compound 1 µM, first compound 0.316 µM
  viability, T/C: 93.5%
Second compound 1 µM, first compound 1 µM
  viability, T/C: 91.5%
Second compound 1 µM, first compound 3.16 µM
  viability, T/C: 88.7%
Second compound 1 µM, first compound 10 µM
  viability, T/C: 73.1%
Second compound 3.16 µM, first compound 0.0316 µM
  viability, T/C: 93.7%
Second compound 3.16 µM, first compound 0.1 µM
  viability, T/C: 101%
Second compound 3.16 µM, first compound 0.316 µM
  viability, T/C: 95.3%
Second compound 3.16 µM, first compound 1 µM
  viability, T/C: 99.2%
Second compound 3.16 µM, first compound 3.16 µM
  viability, T/C: 83.9%
Second compound 3.16 µM, first compound 10 µM
  viability, T/C: 79.1%
Second compound 10 µM, first compound 0.0316 µM
  viability, T/C: 97.7%
Second compound 10 µM, first compound 0.1 µM
  viability, T/C: 91.7%
Second compound 10 µM, first compound 0.316 µM
  viability, T/C: 98.8%
Second compound 10 µM, first compound 1 µM
  viability, T/C: 96.7%
Second compound 10 µM, first compound 3.16 µM
  viability, T/C: 81.5%
Second compound 10 µM, first compound 10 µM
  viability, T/C: 76.2%
Second compound 31.6 µM, first compound 0.0316 µM
  viability, T/C: 106%
Second compound 31.6 µM, first compound 0.1 µM
  viability, T/C: 103%
Second compound 31.6 µM, first compound 0.316 µM
  viability, T/C: 102%
Second compound 31.6 µM, first compound 1 µM
  viability, T/C: 100%
Second compound 31.6 µM, first compound 3.16 µM
  viability, T/C: 74.5%
Second compound 31.6 µM, first compound 10 µM
  viability, T/C: 62%
Second compound 100 µM, first compound 0.0316 µM
  viability, T/C: 91.8%
Second compound 100 µM, first compound 0.1 µM
  viability, T/C: 90.4%
Second compound 100 µM, first compound 0.316 µM
  viability, T/C: 79.8%
Second compound 100 µM, first compound 1 µM
  viability, T/C: 81.7%
Second compound 100 µM, first compound 3.16 µM
  viability, T/C: 70.7%
Second compound 100 µM, first compound 10 µM
  viability, T/C: 52.7%

## COc1cc(C)[nH]c(=O)c1CN1CCc2c(Cl)cc(C(OC)C3COC3)c(Cl)c2C1=O (configuration not stated) + CC[C@@]1(O)C(=O)OCc2c1cc1n(c2=O)Cc2cc3c(CN(C)C)c(O)ccc3nc2-1
Curve of first compound, second compound 0.003 µM
  IC50: > 10000 nM
Curve of first compound, second compound 0.00949 µM
  IC50: > 10000 nM
Curve of first compound, second compound 0.03 µM
  IC50: < 31.6 nM
Curve of first compound, second compound 0.0949 µM
  IC50: < 31.6 nM
Curve of first compound, second compound 0.3 µM
  IC50: < 31.6 nM
Second compound 0.003 µM, first compound 0.0316 µM
  viability, T/C: 90.4%
Second compound 0.003 µM, first compound 0.1 µM
  viability, T/C: 94.9%
Second compound 0.003 µM, first compound 0.316 µM
  viability, T/C: 93.3%
Second compound 0.003 µM, first compound 1 µM
  viability, T/C: 93.3%
Second compound 0.003 µM, first compound 3.16 µM
  viability, T/C: 85.3%
Second compound 0.003 µM, first compound 10 µM
  viability, T/C: 75.2%
Second compound 0.00949 µM, first compound 0.0316 µM
  viability, T/C: 73.6%
Second compound 0.00949 µM, first compound 0.1 µM
  viability, T/C: 70.4%
Second compound 0.00949 µM, first compound 0.316 µM
  viability, T/C: 69.6%
Second compound 0.00949 µM, first compound 1 µM
  viability, T/C: 57.3%
Second compound 0.00949 µM, first compound 3.16 µM
  viability, T/C: 64.9%
Second compound 0.00949 µM, first compound 10 µM
  viability, T/C: 56.5%
Second compound 0.03 µM, first compound 0.0316 µM
  viability, T/C: 29.6%
Second compound 0.03 µM, first compound 0.1 µM
  viability, T/C: 28.5%
Second compound 0.03 µM, first compound 0.316 µM
  viability, T/C: 34.3%
Second compound 0.03 µM, first compound 1 µM
  viability, T/C: 31.1%
Second compound 0.03 µM, first compound 3.16 µM
  viability, T/C: 32.4%
Second compound 0.03 µM, first compound 10 µM
  viability, T/C: 31%
Second compound 0.0949 µM, first compound 0.0316 µM
  viability, T/C: 28.8%
Second compound 0.0949 µM, first compound 0.1 µM
  viability, T/C: 30.5%
Second compound 0.0949 µM, first compound 0.316 µM
  viability, T/C: 29.5%
Second compound 0.0949 µM, first compound 1 µM
  viability, T/C: 32.5%
Second compound 0.0949 µM, first compound 3.16 µM
  viability, T/C: 33.1%
Second compound 0.0949 µM, first compound 10 µM
  viability, T/C: 23.5%
Second compound 0.3 µM, first compound 0.0316 µM
  viability, T/C: 14.2%
Second compound 0.3 µM, first compound 0.1 µM
  viability, T/C: 16.1%
Second compound 0.3 µM, first compound 0.316 µM
  viability, T/C: 18.8%
Second compound 0.3 µM, first compound 1 µM
  viability, T/C: 16.7%
Second compound 0.3 µM, first compound 3.16 µM
  viability, T/C: 13.7%
Second compound 0.3 µM, first compound 10 µM
  viability, T/C: 10.9%

## CNCc1ccc(-c2cc(-c3nc(-c4ccc(S(=O)(=O)C(C)C)cc4)cnc3N)on2)cc1
Compound 0.00949 µM
  viability, T/C: 105% and 99.4% and 104%
Compound 0.03 µM
  viability, T/C: 103% and 101% and 109%
Compound 0.0949 µM
  viability, T/C: 92% and 70.1% and 88.4%
Compound 0.3 µM
  viability, T/C: 26.4% and 24.2% and 45.3%
Compound 0.949 µM
  viability, T/C: 6.64% and 6.62% and 10.9%
Compound 3 µM
  viability, T/C: 0.13% and 0.12% and 0.2%
Curve of compound
  IC50: 199 nM and 159 nM and 266 nM
